{"source": "patent US10220024B2", "about": "“Method of inhibiting cancer cell, method for detecting cancer cell, and system for detecting cancer cell” (CANON KABUSHIKI KAISHA, priority 2012, dated 2019)", "test_system": "Human pancreas cancer cells, KLM-1", "experiment": "Cancer cell inhibitory (growth suppressive) action against pancreatic cancer cells, CellTiter-Glo viable cell count", "format": "cell-based", "conditions": "KLM1, KLM-1, 10 μg/mL, 24 hours", "experimental": "Observation on cancer cell inhibitory (growth suppressive) action against pancreatic cancer cells Human pancreas cancer cells, KLM-1, were pre-cultured in RPMI1640 medium containing 10% FBS at 37° C. in a 5% CO2 ambient. Thereafter, 4,000 cells were seeded per well of a 96-well plate and further cultured for 24 hours. Subsequently, Compound (1) was added to the medium so as to obtain a final concentration of 10 μg/mL and cultured at 37° C. for 24 hours in a 5% CO2 ambient. The cultured cells were analyzed for viable cell count according to CellTiter-Glo Luminescent Cell Viability Assay (manufactured by Promega KK.). As a reference, the number of cells cultured in a medium containing a 0.1% dimethylsulfoxide solution (hereinafter, simply referred to as DMSO) in place of a medium containing Compound (1), in the aforementioned operation, was regarded (100%).\nViable cell count was analyzed in the same manner as in Experimental Example 1 except that Compound (1) of Experimental Example 1 was changed to compounds shown in Table 2.\nViable cell count was analyzed in the same manner as in Experimental Example 1 except that Compound (1) was changed to comparative compounds 1 to 4.\nViable cell counts of Experimental Examples 1 to 7 and Comparative Examples 1 to 4 were analyzed to obtain growth rates.\nEvaluation of cancer cell inhibition against the pancreatic cancer cells (KLM-1) (growth suppression) was made based on the following criteria. Note that the growth rate in Examples herein is a numerical value of the number of cells obtained after culture relative to the number of cells (regarded as 100) grown in a medium containing 0.1% DMSO. Evaluation of cancer cell inhibition against the pancreatic cancer cells (KLM-1) was made as follows. • A: Cancer cell growth rate is less than 20% (cancer cell inhibitory (growth suppressive) effect is extremely high) • B: Cancer cell growth rate is 20% or more and less than 50% (cancer cell inhibitory (growth suppressive) effect is high) • C: Cancer cell growth rate is 50% or more (cancer cell inhibitory (growth suppressive) effect is low)", "note": "Like-named read-outs stand apart in the source and are kept apart here.", "data": [{"compound": "COc1ccc(N2c3ccc(/C=C/C4=[N+](C)c5ccccc5C4(C)C)cc3C3CCCC32)cc1", "note": "(centres unmarked) [Compound 11]", "values": [{"measurement": "activity at 10 µg/mL", "setting": "read-out: Evaluation (cancer cell growth rate)", "value": "< 20", "unit": "%"}, {"measurement": "activity at 10 µg/mL", "setting": "relative to 0.1% DMSO (100), read-out: Cancer cell growth rate (%)", "value": 2.6, "unit": "%"}]}]}
